Reference: patent US20250381277A1, “COMPOSITIONS AND METHODS FOR TREATMENT OF NEUROLOGICAL DISORDERS” (Dana-Farber Cancer Institute, Inc., priority 2022, published 2025)
Entries after “also recorded” stand apart in the source; their conditions may differ.

Tests used:
Assay type in all cases: cell-based, mouse
Caspase-1 = experiment: Microglial inflammasome activation: intracellular Caspase-1 activity (bioluminescent Caspase-Glo 1 assay); details: LPS 100 ng/ml 3 h + Aβ1-42 fibrils 10 μM overnight; microglia from 9-mo 5XFAD and OPN-KO.5XFAD mice; rmOPN 12.5 pg/ml, Cilengitide 10 μM
Method: (§1) Intracellular Caspase-1 activity was measured by bioluminescent assay of microglia from 9-month-old 5XFAD mice. Detection of the specificity of Caspase-1 activity was confirmed by a selective Caspase-1 inhibitor (Ac-YVAD-CHO (SEQ ID NO: 13), 1 μM). Bar plots are representative results from three independent experiments. […] Activation of Caspase-1 and IL1β by provision of rmOPN was blocked following provision of αVβ3 inhibitor to microglia from 9-mo old 5XFAD and OPN-KO.5XFAD mice (n=3). ****p<0.0001, ***p<0.001, **p<0.01, *p<0.05, ns: not significant by one-way ANOVA with Bonferroni's multiple comparisons test. U.D. undetectable.
(§2) In these studies, microglia isolated from 9-mo old 5XFAD and OPN-KO.5XFAD mice were seeded into 96-well plates at 6×10^4 cells/well in conventional microglia culture medium (DMEM-F12 with 10% fetal bovine serum+1% penicillin/streptomycin+10 ng/ml recombinant mouse M-CSF). […] Microglial intracellular Caspase-1 activity was analyzed by the bioluminescent Caspase-Glo® 1 Inflammasome Assay Kit (Promega) per the manufacturer's instruction. […] Culture medium was collected for quantitative determination of microglial […] DuoSet ELISA kit (R&D Systems) according to the manufacturer's instructions.

IL-1β = experiment: Microglial inflammasome activation: IL-1β production (ELISA of culture medium); details: LPS 100 ng/ml 3 h + Aβ1-42 fibrils 10 μM overnight; microglia from 9-mo 5XFAD and OPN-KO.5XFAD mice; rmOPN 12.5 pg/ml, Cilengitide 10 μM
Method: as §1, §2

CD11c^+αVβ3^+ microglia = experiment: Ki-67 and TNF-α expression in microglia of 9-mo old WT mice incubated with rmOPN or αVβ3 inhibitor (flow cytometry); details: 9-mo old WT mice microglia, 24 h with or without 12.5 μg/ml rmOPN or 10 μM cilengitide
Method: (A) Microglia isolated from P5 and 9-mo old WT, OPN-KO and OPN-i-KI mice were incubated×1 h with […] pHrodo Green-labeled synaptosomes per 1×10^5 cells followed by flow cytometry analysis of CD11c^+ microglial engulfment of synaptosomes. CD11c^+ microglia from P5, but not 9-mo old WT mice, were highly phagocytic for engulfing synaptosomes in vitro. […] (C) CD11c^+ microglia expressed high levels of proliferation marker Ki-67 early in development (P5). OPN-s, but not OPN-i deficiency decreased Ki-67 expression in CD11c^+ microglia (n=3). *p<0.05 by one-way ANOVA with Bonferroni's multiple comparisons test. […] (E) Microglia isolated from 9-mo old WT mice were incubated×24 h with or without 12.5 μg/ml recombinant mouse OPN (rmOPN) or 10 μM αVβ3 inhibitor (cilengitide) followed by flow cytometry analysis of proliferation marker Ki-67. […] (G) Microglia isolated from 9-mo old WT mice were incubated×24 h with or without 12.5 μg/ml recombinant mouse OPN (rmOPN) or 10 μM αVβ3 inhibitor (cilengitide) followed by flow cytometry analysis of TNF-α expression. […] Data are shown as mean±s.e.m.
Microglial staining for flow cytometry analysis. Microglia were stained with Ghost dye Violet 510 (1:1000, Tonbo Biosciences) to exclude dead cells followed by Fc receptor blocking using CD16/CD32 antibody (1:100, BD Biosciences) to avoid non-specific staining. Appropriate microglial surface markers were used for staining, including anti-CD11b (1:100 Biolegend), anti-CD45 (1:100 Biolegend), anti-CD11c (1:50 Biolegend), anti-CD36 (1:100, Biolegend), anti-CD209a (1:100, Biolegend), anti-αV integrin (1:50, Biolegend), anti-β3 integrin (1:50, Biolegend), anti-CD86 (1:100, Biolegend), and anti-MHC II (1:100, Biolegend), followed by fixation and permeabilization for subsequent intracellular staining with anti-OPN (1:10, R&D Systems), anti-TNF-α (1:50, Biolegend) and intranuclear staining with anti-Ki-67 (1:100, Biolegend).

[1] = tested on: CD11c^+ microglia of 9-mo old OPN-KO.5XFAD mice; experiment: In vitro microglia assay: impact of OPN-αVβ3 interaction on CD11c^+ microglial TNF-α production; details: 9-mo old OPN-KO.5XFAD microglia, Cilengitide 10 μM 1 h pre-incubation, then rmOPN 12.5 pg/ml, 24 h
Method: (a) Representative flow cytometry plots and quantification of TREM2 mean fluorescence intensity (MFI) in CD11c^+ OPN^+ and CD11c^+ OPN^− microglial subsets of 9-mo old 5XFAD mice. […] Statistical analysis was performed by two-tailed Student's t test. (b) Representative flow cytometry plots of TNF-α and TREM2 expression in CD11c^− OPN^− microglial subset of 9-mo old 5XFAD mice. CD11c^− OPN^− microglia expressed low level of TNF-α and negligible level of TREM2. The plots were representative results from 3 independent experiments. (c) Microglial expression of canonical OPN receptors in 5XFAD mice at different stages of disease. […] The histogram of CD44 and the contour plot of αVβ3 and αVβ5 were the representative results from 3 independent experiments. (d) The impact of OPN-αVβ3 interaction on CD11c^+ microglial production of TNF-α. […] (e) Representative flow cytometry plots and quantification of TREM2 MFI in CD11c^+ microglia of 9-mo old 5XFAD and OPN-KO.5XFAD mice (n=3). […] Two-tailed Student's t test was performed for statistical analysis.
To test the impact of OPN-αVβ3 interaction on CD11c^+ microglial pro-inflammatory response, microglia were enriched by anti-CD11b microbeads (purity >95%, Miltenyi) from 9-mo old OPN-KO.5XFAD mice and were seeded into 12-well plates at 3×10^5 cells/well in conventional microglia culture medium (DMEM-F12 with 10% fetal bovine serum+1% penicillin/streptomycin+10 ng/ml recombinant mouse M-CSF). Microglia were pre-incubated with a selective αVβ3 inhibitor, Cilengitide (10 μM) for 1 h followed by the addition of 12.5 pg/ml recombinant mouse OPN (rmOPN) and cultured for 24 h before analysis of CD11c^+ microglial expression of TNF-α by flow cytometry.

Row | TNF-α expression in CD11c^+αVβ3^+ microglia (CD11c^+αVβ3^+ microglia) | Molecule | microglial intracellular Caspase-1 activity (Caspase-1) | microglial IL-1β production (IL-1β) | Ki-67 expression in CD11c^+αVβ3^+ microglia (CD11c^+αVβ3^+ microglia) | TNF-α production by CD11c^+ microglia [1] | TNF-α production by CD11c^+ microglia ([1]; listed as αVβ3 inhibitor)
1 | fully abolished | CC(C)[C@H]1C(=O)N[C@@H](CCCN=C(N)N)C(=O)NCC(=O)N[C@@H](CC(=O)O)C(=O)N[C@H](Cc2ccccc2)C(=O)N1C [Cilengitide] | blocked | blocked | markedly reduced; also recorded: fully abrogated | abolished | fully abrogated
2 | Upregulation of TNF-α expression | rmOPN: recombinant mouse OPN (osteopontin) | substantially increased; also recorded: Activation | substantially increased; also recorded: Activation | enhanced Ki-67 expression | induced TNF-α expression; also recorded: Upregulated TNF-α production | 
